Results published in ChEMBL document CHEMBL1136875, “Regioselective preparation of 5-hydroxypropranolol and 4'-hydroxydiclofenac with a fungal peroxygenase” (Bioorg Med Chem Lett, 2009).

Experiments:
Priestia megaterium [1] = assay: Activity of Bacillus megaterium CYP450 D6H10 mutant assessed as conversion of diclofenac to 4'-hydroxydiclofenac at 5 mM in presence of 1 mM H2O2 and 4 mM ascorbic acid
[2] = target: T1, Aromatic peroxygenase (Cyclocybe aegerita) (UniProt B9W4V6); assay: Activity of Agrocybe aegerita peroxygenase assessed as conversion of diclofenac to 4'-hydroxydiclofenac at 5 mM in presence of 5 mM H2O2 and 4 mM ascorbic acid
T1 sequence (whole entry): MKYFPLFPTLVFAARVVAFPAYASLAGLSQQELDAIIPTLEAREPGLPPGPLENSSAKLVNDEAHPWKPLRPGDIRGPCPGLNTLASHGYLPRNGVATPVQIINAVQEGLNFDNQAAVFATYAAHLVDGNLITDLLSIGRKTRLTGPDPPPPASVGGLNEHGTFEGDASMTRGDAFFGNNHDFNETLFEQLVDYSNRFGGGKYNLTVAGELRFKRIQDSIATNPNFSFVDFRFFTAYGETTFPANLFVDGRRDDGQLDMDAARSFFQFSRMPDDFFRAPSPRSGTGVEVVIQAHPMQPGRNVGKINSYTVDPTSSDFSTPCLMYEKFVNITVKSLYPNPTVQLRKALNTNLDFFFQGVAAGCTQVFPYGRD

Priestia megaterium [3] = assay: Activity of Bacillus megaterium CYP450 D6H10 mutant assessed as conversion of propranolol to 5-hydroxypropranolol at 5 mM in presence of 1 mM H2O2 and 4 mM ascorbic acid
[4] = target: T1, Aromatic peroxygenase (Cyclocybe aegerita); assay: Activity of Agrocybe aegerita peroxygenase assessed as conversion of propranolol to 5-hydroxypropranolol at 5 mM in presence of 5 mM H2O2 and 4 mM ascorbic acid

| Compound | Activity (Priestia megaterium [1]) [%] | Activity [2] [%] | Activity (Priestia megaterium [3]) [%] | Activity [4] [%] |
| --- | --- | --- | --- | --- |
| O=C(O)Cc1ccccc1Nc1c(Cl)cccc1Cl | 30 | 30 | – | – |
| CC(C)NCC(O)COc1cccc2ccccc12 (centres undefined) | – | – | 0.5 | 13.6 |
